These results are taken from a melting point compilation (Tetko et al.).

A word on the melting point: it is the temperature of the solid-liquid transition. In the case of `O=C(CN1C(=O)CCC1=O)c1ccccc1Cl`, the melting point was in the range of 118 to 120 °C. Regarding `COc1ccc(C2C(CO)CC(=O)N2C)cc1` (stereo not given), the melting point lay within 82 to 84 °C.

`O=C(O)c1cc(S(=O)(=O)NCCOc2ccccc2)ccc1Cl` registered a melting point of 169 to 171 °C. The compound `Cc1c(N)cccc1C(=O)N1CCSCC1` yielded a melting point of 155 to 157 °C. Take `O=C(O)c1ccc(Oc2ccc(Cl)cc2)c(F)c1`: the melting point fell in the range of 128 to 130 °C. On to `O=S(=O)(O)c1ccc2c(c1)CCCO2`, for which the melting point was 80 to 82 °C. The result for `CNS(=O)(=O)c1cc(N)ccc1C` reads 133 to 137 °C; that for `O=C(NS(=O)(=O)c1cccs1)c1ccccc1`, 92 to 94 °C; that for `O=C1Nc2cc3c(cc2C1=O)OCCO3`, 210 to 212 °C. For `CC(C)(O)c1cn(-c2ccccc2)nn1`, the melting point is 89 to 91 °C. With `N#CCOc1cccc(CC(=O)O)c1`, the melting point lay in the range of 79 to 81 °C. Consider `O=C(OCc1ccccc1)N1CCCC(CS(=O)(=O)Cl)C1` (stereo not given), for which the melting point was 81 to 83 °C.

In turn, `N#CC(O)c1ccc([N+](=O)[O-])cc1` (stereo not given) showed a melting point of 109 to 111 °C. Consider `Cc1csc2nc(CCl)cc(=O)n12`, for which the melting point fell in the range of 100 to 104 °C. The result for `Cc1n[nH]cc1C(=O)NN` reads 199 to 201 °C.

On to `O=C1CCc2cc([N+](=O)[O-])ccc2N1`, for which the melting point lay in the range of 201 to 203 °C. `O=C(CN1CCNCC1)N1CCc2ccccc21` returned a melting point of 139 to 141 °C. Under `CC1CNc2ccccc2S1` (stereo not given) stands 41 to 43 °C. The compound `O=C(O)c1ccc(F)c(S(=O)(=O)Cl)c1` registered a melting point of 138 to 140 °C.

`COc1ccc(CNS(=O)(=O)c2c[nH]nc2N)cc1` gave a melting point of 137 to 139 °C. The result for `Cc1cccc(C)c1C(C)O` (stereo not given) reads 59 to 61 °C. Compound `Nc1ccc(Nc2ccc(F)cc2)c2ccncc12` returned a melting point of 153 to 155 °C. The result for `Cc1cccc2[nH]c(CO)cc12` reads 71 to 73 °C; that for `CON(C)S(=O)(=O)c1cc(C(=O)O)ccc1Cl`, 228 to 230 °C. Under `COCC(C)NS(=O)(=O)c1ccc(Cl)c([N+](=O)[O-])c1` (stereo not given) stands 209 to 211 °C; under `CC1CNc2cccnc2N1` (stereo not given), 110 to 112 °C.

In the case of `N#Cc1ccc(N2CCCC2=O)cc1`, the melting point fell in the range of 106 to 108 °C.

In turn, `CC(=O)CC(=O)c1cnn(C)c1` displayed a melting point of 88 to 90 °C.

In turn, `O=[N+]([O-])c1cc(S(=O)(=O)Cl)c(Cl)cc1F` showed a melting point of 41 to 43 °C. In turn, `CC(C)(C)NC(=O)c1ccccc1C(=O)O` had a melting point of 146 to 148 °C. Compound `CN(C)Cc1ccc(-c2ccccc2C#N)cc1` had a melting point of 44 to 46 °C. In turn, `NNC(=O)NCCc1cccs1` yielded a melting point of 90 to 92 °C. Consider `COc1ccc(CCNC(=O)C(C)Cl)cc1OC` (stereo not given), for which the melting point was in the range of 76 to 78 °C. Under `COc1ccc(CCNC(C)=O)cc1S(N)(=O)=O` stands 194 to 196 °C; under `CC(Cl)C(=O)Nc1cccc([N+](=O)[O-])c1` (stereo not given), 115 to 117 °C; under `CCOC(=O)CN1C(=O)C(=O)c2ccccc21`, 127 to 129 °C. In turn, `CSc1ccc(CC(=O)O)cc1` yielded a melting point of 97 to 98 °C. `Cc1ccc(-c2nnc(C(C)Cl)o2)cc1` (stereo not given) gave a melting point below 17 °C. The result for `Nc1ccc(CC(=O)N2CCSCC2)cc1` reads 118 to 120 °C; that for `CC(C)C(O)Cc1ccccc1Br` (stereo not given), 73 to 75 °C. As for `CCC(C)(N)C(=O)O` (stereo not given), the melting point was in the range of 276 to 278 °C.

Consider `Cc1cc(C)n2nc(Br)nc2n1`, for which the melting point lay in the range of 185 to 187 °C. The compound `CC(C)(C)c1ccc(-c2nnc(N)[nH]2)cc1` registered a melting point of 213 to 215 °C. The result for `O=C(O)c1ccccc1N1CCCCC1` reads 59 to 61 °C; that for `Cn1c(S)nnc1C1CCC1`, 124 to 126 °C. As to `O=C(O)CCc1nc2c(F)cccc2[nH]1`, the melting point is 185 to 187 °C.

In the case of `O=C(O)c1ccc(Cl)c(S(=O)(=O)N2CCc3ccccc32)c1`, the melting point is 195 to 197 °C. In the case of `Cc1nc(C(=O)O)ccc1C#N`, the melting point is 150 to 152 °C. As to `CC(CC(=O)O)NCCO` (stereo not given), the melting point lay within 180 to 182 °C.

For `O=C(Cc1ccc(Br)cc1)Nc1ccccc1C(=O)O`, the melting point was 212 to 214 °C. The result for `NCCNc1ccc(-c2ccccc2)nn1` reads 113 to 115 °C.

As for `Cc1ccc(S(C)(=O)=O)cc1S(=O)(=O)Cl`, the melting point fell in the range of 136 to 138 °C. The result for `Cc1c(N)cccc1C(=O)N1CCOCC1` reads 106 to 108 °C; that for `O=C(CCl)NC(=O)NC1CCS(=O)(=O)C1` (stereo not given), 173 to 175 °C; that for `O=C(O)c1cccnc1N1CCN(Cc2cccc(Cl)c2)CC1`, 188 to 190 °C. The result for `COc1ccc2nc(C)cc(C(=O)O)c2c1` reads 279 to 281 °C; that for `Nc1ccc2c(c1)CCO2`, 71 to 73 °C; that for `CC(NS(C)(=O)=O)C(=O)NN` (stereo not given), 117 to 119 °C. On to `Cc1ccc(-c2n[nH]c(S)nc2=O)cc1`, for which the melting point lay within 225 to 227 °C. As for `CS(=O)(=O)CCC(NC(=O)c1ccc(Cl)cc1)C(=O)O` (stereo not given), the melting point was 184 to 186 °C. `Cc1ccc2c(c1)c(=O)n(C)c1nnc(CCl)n21` yielded a melting point of 203 to 205 °C. On to `O=C(c1ccc(F)cc1)c1ccccc1Cl`, for which the melting point is 61 to 63 °C. The result for `CCN(CC)C(=O)c1ccc(S(=O)(=O)Cl)cc1` reads 59 to 61 °C. `[N-]=[N+]=NC(=O)c1ccco1` returned a melting point of 60 to 62 °C. Compound `O=C(O)c1ccc(S)c(Cl)c1` came in with a melting point of 219 to 221 °C. Turning to `CC(=O)c1c[nH]c2cc(F)ccc12`, the melting point fell in the range of 222 to 224 °C.

For `NC(=O)c1sc2cc(Cl)ccc2c1Cl`, the melting point was 269 to 271 °C. Consider `CC(C)(C)OC(=O)NCC1CCCCC12NC(=O)NC2=O` (stereo not given), for which the melting point lay in the range of 229 to 231 °C. For `O=C(NCc1ccccc1)c1cc2ccccc2cc1O`, the melting point was in the range of 180 to 182 °C. On to `Nc1cccc(-c2cn[nH]c2)c1`, for which the melting point was 189 to 191 °C. `Nc1cnccc1SCCCO`: the melting point lay within 71 to 73 °C. Take `NC(=O)C(Cl)c1ccc(F)cc1` (stereo not given): the melting point lay in the range of 93 to 95 °C.

Take `CC(=O)CC(=O)N1CCOCC1`: the melting point was in the range of 68 to 70 °C. In turn, `O=c1cc[nH]c2ccc(Br)cc12` registered a melting point of 286 to 288 °C. `Nc1nnc(-c2ccc(F)cc2)o1` displayed a melting point of 246 to 248 °C. `Cc1ccc(C(C)C)c(OCCC(=O)O)c1` gave a melting point of 93 to 95 °C.

`O=C(O)C=Cc1cncc(F)c1`: the melting point is 234 to 236 °C. The result for `CC1CNc2ccccc2C(=O)N1` (stereo not given) reads 189 to 191 °C; that for `Nc1ccc(CN2CCN(c3ccccn3)CC2)cc1`, 101 to 103 °C.

Consider `O=S(=O)(Cl)c1csc(-c2cccc(Br)c2)n1`, for which the melting point was in the range of 94 to 96 °C. `O=C(CCl)NC1CCN(C(=O)C2CCCCC2)CC1` returned a melting point of 133 to 135 °C.

In turn, `O=C(c1ccc(S(=O)(=O)Cl)cc1)N1CCCCC1` returned a melting point of 97 to 99 °C.

`NC(=S)Cc1nc2ccccc2[nH]1` registered a melting point of 204 to 207 °C.

`Cc1ccc(-c2nn(Cc3ccccc3)cc2C(=O)O)cc1C` showed a melting point of 155 to 157 °C. Under `Nc1cccc(-c2nnnn2C2CC2)c1` stands 137 to 139 °C; under `Fc1cccc2c1CCCN2`, 45 to 47 °C; under `Oc1ccc(-c2nc(-c3ccccc3)cs2)cc1`, 148 to 150 °C. The result for `Fc1ccc2nc(-c3ccccn3)[nH]c2c1` reads 159 to 161 °C; that for `Cc1ccccc1-c1nnc(Cl)n1-c1ccccc1C`, 200 to 202 °C; that for `COc1ccc(OC)c(N2CC(C(=O)O)CC2=O)c1` (stereo not given), 100 to 102 °C.

For the compound `CN(C)c1ccc(CNC(=O)CCl)cc1`, the melting point was 59 to 61 °C.

As to `CC(O)C1NC(=O)NC1=O` (stereo not given), the melting point fell in the range of 179 to 181 °C.

Regarding `O=C(O)c1cn(Cc2cccc(F)c2)nn1`, the melting point is 189 to 191 °C. For `N#Cc1ccccc1Oc1ccc(C(=O)O)cc1Cl`, the melting point lay within 174 to 176 °C. Take `CCOCCOc1ccc(Br)cc1/C=C/C(=O)O`: the melting point was 109 to 111 °C. The result for `Cc1cc2sc(N)nc2s1` reads 117 to 119 °C. With `O=C(O)c1ccc(F)c(S(=O)(=O)N2CCCC2)c1`, the melting point fell in the range of 223 to 225 °C. The compound `CC1(c2ccc(Br)cc2)CC(=O)NC1=O` (stereo not given) registered a melting point of 144 to 146 °C.

`O=C(O)c1ccc(-c2noc(C(F)(F)F)n2)cc1` registered a melting point of 249 to 251 °C. On to `Nc1cccc(-n2ccnc2S)c1`, for which the melting point is 176 to 178 °C.

As to `COc1cc(C(=O)O)ccc1OCc1cccnc1`, the melting point lay within 179 to 181 °C. Under `CCCCCCOc1ccc(C(=O)O)cc1OC` stands 122 to 124 °C. The result for `O=C(NC1CCNCC1)c1ccc(F)cc1` reads 175 to 177 °C; that for `Cc1n[nH]c(C)c1CC(C)C(=O)O` (stereo not given), 170 to 172 °C; that for `O=C(O)c1ccc2ccc(Cl)cc2n1`, 179 to 181 °C.

In turn, `Cn1c(Cl)nc2ccccc21` returned a melting point of 111 to 113 °C. Under `Cn1cc(N2CCC(N)C2=O)cn1` (stereo not given) stands 131 to 133 °C; under `CC(C)c1ccc(N)c(C(=O)O)c1`, 96 to 98 °C. Consider `OC1(CNCc2ccccc2)CCc2ccccc21` (stereo not given), for which the melting point was in the range of 54 to 56 °C.

Regarding `CC(C)(C)OC(=O)N1C2CCC1C(C(=O)O)C2` (stereo not given), the melting point fell in the range of 144 to 146 °C. `CCc1c(C(=O)O)cnn1-c1ccccc1` had a melting point of 159 to 161 °C. `Cc1ccc(C(=O)CBr)cc1[N+](=O)[O-]` had a melting point of 45 to 47 °C.

With `Oc1ccc(C2SCCCS2)cc1`, the melting point lay in the range of 154 to 156 °C.

Take `CCc1ccc(C=CS(=O)(=O)Cl)cc1`: the melting point was 66 to 68 °C. Turning to `CC(C)(C)c1ccc(N2CCC(N)CC2)cc1`, the melting point was 80 to 82 °C.

The compound `COC(=O)C1CCN(c2nc3ccccc3o2)CC1` showed a melting point of 106 to 108 °C. `Nc1nc(-c2cccnc2)cs1` had a melting point of 189 to 193 °C. Under `Nc1ccc(S(=O)(=O)Nc2cccc(Cl)c2)cc1` stands 132 to 134 °C; under `CC(C)(C)OC(=O)NCc1ccc2c(c1)CCCN2`, 63 to 65 °C. The result for `Nc1cc(-c2ccncc2)n[nH]1` reads 194 to 196 °C.
